Measurements: patent US5582986A, “Antisense oligonucleotide inhibition of the ras gene” (Isis Pharmaceuticals, Inc., priority 1994, dated 1996)

Legend:
[1] = system: normal (wild-type) H-ras-luciferase reporter gene in HeLa cells; assay: ras-luciferase reporter gene expression, normal (wild-type) form, transient transfection; type: cell-based, human; settings: dose-response, luciferase activity as % of untreated transfected cells, read-out: IC50, inhibition of ras-luciferase activity, normal form
[2] = system: mutant (activated, codon-12) H-ras-luciferase reporter gene in HeLa cells; assay: ras-luciferase reporter gene expression, mutant (codon-12, activated) form, transient transfection; type: cell-based, human

2570: phosphorothioate 17-mer CCA-CAC-CGA-CGG-CGC-CC, targeted to the codon-12 point mutation of activated H-ras RNA (antisense CCACACCGACGGCGCCC; all phosphorothioate, sugars by position and methylation of C not given here) [Oligo 2570]
IC50 [1]: ~250 nM | selectivity toward the mutant form of ras-luciferase as compared to the normal form ([2]; at low concentrations, dose-response (FIG. 2)): approximately threefold | IC50 ([2]; dose-response, HeLa cells, luciferase activity as % of untreated transfected cells, read-out: IC50, inhibition of ras-luciferase activity, mutant form): ~100 nM | inhibition of mutant ras-luciferase relative to wild-type ([2]; single dose 100 nM, HeLa cells, cationic lipid (FIG. 6)): four-fold | selectivity toward the mutated form of ras-luciferase as compared to the normal form (in words) ([2]; single dose 0.5 μM (FIG. 3, FIG. 4)): displayed selectivity toward the mutated form
